From ChEMBL document CHEMBL1201862, “PubChem BioAssay data set” (2004)
Activity calls are given as the source filed them.

What was measured:
[1] = Luminescence Cell-Based Dose Retest to Confirm Inhibitors of Cancer Stem Cells. [Related pubchem assays (depositor defined):AID2717, AID2721]; type: functional; conditions: Homo sapiens
[2] = molecular target: T1, RNA-binding protein pos-1 (Caenorhabditis elegans, UniProt G5EF15); test: inhibitors of POS-1/mex-3 RNA binding, dose response, biochemical, fluorescence polarization (AID 1964);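 further: purified POS-1 fused to maltose binding protein made in E. coli; potency of compounds blocking POS-1 binding to fluorescent RNA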
T1 sequence (G5EF15 whole entry): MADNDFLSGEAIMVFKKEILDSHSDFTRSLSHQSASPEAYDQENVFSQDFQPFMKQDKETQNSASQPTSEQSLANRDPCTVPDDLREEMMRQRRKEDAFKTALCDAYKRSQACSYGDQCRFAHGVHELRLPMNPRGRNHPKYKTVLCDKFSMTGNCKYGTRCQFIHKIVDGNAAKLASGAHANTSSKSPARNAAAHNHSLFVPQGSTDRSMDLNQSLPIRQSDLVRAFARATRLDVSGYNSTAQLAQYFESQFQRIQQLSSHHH

[3] = molecular target: T2, Zinc finger protein mex-5 (Caenorhabditis elegans, UniProt Q9XUB2); test: MEX-5/TCR-2 RNA interaction inhibitors, dose response, biochemical, C. elegans, fluorescence polarization (AID 1960)
T2 sequence (Q9XUB2 whole entry): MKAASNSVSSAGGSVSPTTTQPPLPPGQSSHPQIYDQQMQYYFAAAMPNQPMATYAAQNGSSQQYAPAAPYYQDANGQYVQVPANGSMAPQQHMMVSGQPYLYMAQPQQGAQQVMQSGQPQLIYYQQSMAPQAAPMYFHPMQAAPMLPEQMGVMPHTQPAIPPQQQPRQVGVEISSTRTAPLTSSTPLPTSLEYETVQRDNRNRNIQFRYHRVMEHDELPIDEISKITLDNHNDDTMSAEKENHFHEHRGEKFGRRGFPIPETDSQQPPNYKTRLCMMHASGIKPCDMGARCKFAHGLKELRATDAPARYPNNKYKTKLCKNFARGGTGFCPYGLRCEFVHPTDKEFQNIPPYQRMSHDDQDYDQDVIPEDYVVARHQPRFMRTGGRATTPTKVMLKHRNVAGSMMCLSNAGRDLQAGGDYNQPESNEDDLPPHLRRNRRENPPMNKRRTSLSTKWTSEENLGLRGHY

[4] = ZM109 Env clade C HIV-1 fusion inhibitors, dose response, HeLa effector, CEM target cells, luciferase, cherry-pick (AID 652058); type: functional, cell-based
[5] = inhibitors of HIV Env-driven cell fusion, dose response, cherry-pick (AID 652057); type: functional, cell-based
[6] = inhibitors of clade B AD8 Env fusion, dose response, cell-based, cherry-pick (AID 652062); type: functional;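 further: luciferase signal from cell-cell fusion driven by HIV-1 clade B AD8 Env; potency is for inhibitors of fusion seen as a drop in luminescence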
[7] = off-target signal loss in HeLa-CEM21 co-culture – HeLa F-luc CTL cells, cherry-picked, counter-screen for HIV-1 Env fusion inhibitor project, dose response (AID 652040); type: functional, cell-based;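 further: potency for signal decrease marking cytotoxic or nonspecific inhibition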
Cytochrome P450 2C9 = Cytochrome P450 2C9 (Homo sapiens, UniProt P11712)
Cytochrome P450 2C9, sequence (P11712 whole entry): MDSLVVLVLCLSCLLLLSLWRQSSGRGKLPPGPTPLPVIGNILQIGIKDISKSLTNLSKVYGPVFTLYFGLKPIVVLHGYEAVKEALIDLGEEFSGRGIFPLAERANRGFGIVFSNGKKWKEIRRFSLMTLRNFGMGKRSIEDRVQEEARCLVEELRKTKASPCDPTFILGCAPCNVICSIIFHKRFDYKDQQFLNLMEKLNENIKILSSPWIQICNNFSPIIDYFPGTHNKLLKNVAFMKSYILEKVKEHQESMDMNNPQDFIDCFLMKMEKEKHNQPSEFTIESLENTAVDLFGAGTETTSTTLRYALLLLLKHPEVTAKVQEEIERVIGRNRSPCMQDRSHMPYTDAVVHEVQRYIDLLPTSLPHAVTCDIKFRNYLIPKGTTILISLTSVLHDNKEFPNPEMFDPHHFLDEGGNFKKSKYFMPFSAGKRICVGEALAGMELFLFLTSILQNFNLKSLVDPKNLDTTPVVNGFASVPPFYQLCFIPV

Cytochrome P450 2D6 = Cytochrome P450 2D6 (Homo sapiens, UniProt P10635);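 further: CYP2D6 member of a cytochrome P450 panel assay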
Cytochrome P450 2D6, sequence (P10635 whole entry): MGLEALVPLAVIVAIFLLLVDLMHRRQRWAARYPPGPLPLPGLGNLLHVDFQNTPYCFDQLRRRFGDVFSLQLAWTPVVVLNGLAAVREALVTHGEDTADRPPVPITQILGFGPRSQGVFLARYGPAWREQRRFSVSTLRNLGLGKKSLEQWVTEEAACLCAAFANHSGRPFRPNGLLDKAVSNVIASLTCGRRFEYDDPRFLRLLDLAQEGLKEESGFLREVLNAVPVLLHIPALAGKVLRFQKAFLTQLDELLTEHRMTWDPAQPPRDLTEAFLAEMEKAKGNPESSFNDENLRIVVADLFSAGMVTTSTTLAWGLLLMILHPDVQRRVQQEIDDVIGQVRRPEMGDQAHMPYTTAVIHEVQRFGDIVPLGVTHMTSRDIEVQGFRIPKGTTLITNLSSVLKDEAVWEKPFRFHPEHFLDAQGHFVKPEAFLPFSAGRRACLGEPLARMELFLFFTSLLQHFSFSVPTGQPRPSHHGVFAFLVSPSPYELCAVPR

Protein skinhead-1 = molecular target: T3, Protein skinhead-1 (Caenorhabditis elegans, UniProt P34707); type: functional
T3 sequence (P34707 whole entry): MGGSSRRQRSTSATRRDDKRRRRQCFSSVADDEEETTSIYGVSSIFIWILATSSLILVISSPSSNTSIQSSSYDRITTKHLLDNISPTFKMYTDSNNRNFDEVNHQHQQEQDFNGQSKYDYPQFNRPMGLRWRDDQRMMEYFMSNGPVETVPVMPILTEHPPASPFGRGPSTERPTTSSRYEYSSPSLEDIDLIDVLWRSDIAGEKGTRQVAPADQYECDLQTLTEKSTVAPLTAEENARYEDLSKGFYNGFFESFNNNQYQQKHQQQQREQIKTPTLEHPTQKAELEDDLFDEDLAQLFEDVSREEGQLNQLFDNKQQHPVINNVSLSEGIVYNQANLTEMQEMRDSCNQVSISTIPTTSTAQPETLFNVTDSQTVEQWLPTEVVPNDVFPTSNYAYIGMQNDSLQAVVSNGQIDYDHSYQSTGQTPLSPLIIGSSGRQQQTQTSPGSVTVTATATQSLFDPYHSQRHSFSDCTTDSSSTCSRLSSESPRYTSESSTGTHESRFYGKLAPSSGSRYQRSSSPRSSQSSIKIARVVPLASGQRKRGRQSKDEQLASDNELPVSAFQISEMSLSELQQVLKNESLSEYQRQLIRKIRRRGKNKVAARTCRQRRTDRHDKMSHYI

[8] = molecular target: T4, Polyadenylate-binding protein 1 (Homo sapiens, UniProt P11940); test: PABP1 MLLE–PAM2 binding inhibitor potency, dose response, biochemical, fluorescence polarization, FITC-PAM2 peptide (AID 602259); type: functional; conditions: read-out: IC50_Mean
T4 sequence (P11940 whole entry): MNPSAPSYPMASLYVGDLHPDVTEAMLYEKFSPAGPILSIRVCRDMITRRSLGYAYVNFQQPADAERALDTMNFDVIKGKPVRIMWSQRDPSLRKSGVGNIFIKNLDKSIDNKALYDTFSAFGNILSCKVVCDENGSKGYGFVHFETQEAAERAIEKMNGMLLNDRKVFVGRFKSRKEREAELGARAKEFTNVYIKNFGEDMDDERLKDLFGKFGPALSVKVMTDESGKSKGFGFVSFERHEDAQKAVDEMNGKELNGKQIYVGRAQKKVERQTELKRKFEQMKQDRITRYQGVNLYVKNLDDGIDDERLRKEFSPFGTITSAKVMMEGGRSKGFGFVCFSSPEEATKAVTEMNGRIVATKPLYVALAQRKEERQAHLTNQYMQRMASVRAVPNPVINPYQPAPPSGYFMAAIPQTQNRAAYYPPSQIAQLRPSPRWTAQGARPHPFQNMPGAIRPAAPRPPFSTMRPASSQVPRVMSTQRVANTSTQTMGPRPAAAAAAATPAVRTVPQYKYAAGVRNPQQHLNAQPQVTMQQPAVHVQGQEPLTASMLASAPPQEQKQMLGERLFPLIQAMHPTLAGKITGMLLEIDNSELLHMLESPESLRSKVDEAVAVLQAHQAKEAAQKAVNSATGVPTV

[9] = molecular target: T4, Polyadenylate-binding protein 1; test: PABP1 MLLE–PAM2 interaction inhibitors, dose response, miRNA deadenylation inhibitor project, biochemical, fluorescence polarization, Cy5-PAM2 peptide, secondary (AID 602260); type: functional; conditions: read-out: IC50_Mean
[10] = inhibitors of intracellular T. cruzi replication, confirmation, NIH3T3 host cells, beta-gal luminescence (AID 2044); type: functional, cell-based;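 further: intracellular parasites grown in NIH/3T3 mouse fibroblasts as host cells; luminescent beta-galactosidase reporter signal from transgenic T. cruzi replicating inside host cells; inhibitors lower the luminescence signal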
[11] = molecular target: Eukaryotic translation initiation factor 4E (Mus musculus, UniProt P63073); test: eIF4E–eIF4G protein interaction inhibitors, dose response, biochemical, TR-FRET (AID 855); type: functional;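 further: potency for disrupting eIF4E binding to eIF4GI seen as loss of FRET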
Eukaryotic translation initiation factor 4E, sequence (P63073 whole entry): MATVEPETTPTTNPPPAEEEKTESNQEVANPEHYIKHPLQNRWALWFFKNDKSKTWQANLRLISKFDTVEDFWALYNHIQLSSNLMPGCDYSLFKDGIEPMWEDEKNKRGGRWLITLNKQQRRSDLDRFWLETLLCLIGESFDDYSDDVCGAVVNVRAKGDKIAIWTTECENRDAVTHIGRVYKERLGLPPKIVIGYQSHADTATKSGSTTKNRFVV

[12] = molecular target: T5, Rac GTPase-activating protein 1 (Homo sapiens, UniProt Q9H0H5); test: MgcRacGAP GTPase-activating activity inhibitors, confirmation, biochemical, ADP Hunter fluorescence, primary and confirmatory (AID 624330); type: functional
T5 sequence (Q9H0H5 whole entry): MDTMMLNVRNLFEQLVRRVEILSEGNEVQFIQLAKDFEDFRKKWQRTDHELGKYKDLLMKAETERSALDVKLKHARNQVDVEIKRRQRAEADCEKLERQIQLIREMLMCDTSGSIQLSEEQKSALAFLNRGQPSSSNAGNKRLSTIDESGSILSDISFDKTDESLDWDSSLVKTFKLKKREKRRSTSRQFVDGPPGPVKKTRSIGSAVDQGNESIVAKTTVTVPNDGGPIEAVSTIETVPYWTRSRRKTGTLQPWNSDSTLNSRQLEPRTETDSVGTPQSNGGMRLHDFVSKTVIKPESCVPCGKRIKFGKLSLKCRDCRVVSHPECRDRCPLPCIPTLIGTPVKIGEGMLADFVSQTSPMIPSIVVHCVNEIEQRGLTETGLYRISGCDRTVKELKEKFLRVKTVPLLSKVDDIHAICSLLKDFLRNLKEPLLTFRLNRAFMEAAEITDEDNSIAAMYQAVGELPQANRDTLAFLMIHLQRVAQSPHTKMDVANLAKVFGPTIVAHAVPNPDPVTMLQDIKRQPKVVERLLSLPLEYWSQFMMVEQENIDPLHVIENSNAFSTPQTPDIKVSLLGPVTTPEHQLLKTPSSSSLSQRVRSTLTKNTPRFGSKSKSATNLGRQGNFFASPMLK

[13] = cytotoxicity toward NIH3T3 fibroblasts, dose response, counter-screen, cell-based, ATP luminescence, mouse fibroblasts (AID 2010); type: functional;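 further: cells exposed to compound for about 90 hours before reading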
Nonstructural protein 1 = Nonstructural protein 1 (Influenza A virus, UniProt Q194T2); type: functional, Influenza A virus (A/California/07/2009(H1N1))
Nonstructural protein 1, sequence (Q194T2 whole entry): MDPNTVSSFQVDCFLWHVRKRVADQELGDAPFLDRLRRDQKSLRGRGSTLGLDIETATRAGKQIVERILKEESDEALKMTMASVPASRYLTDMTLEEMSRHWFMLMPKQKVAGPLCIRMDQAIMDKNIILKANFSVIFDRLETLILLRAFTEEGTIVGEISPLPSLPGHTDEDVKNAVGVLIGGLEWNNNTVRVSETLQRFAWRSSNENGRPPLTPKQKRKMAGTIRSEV

[14] = molecular target: T6, Microphthalmia-associated transcription factor (Homo sapiens, UniProt O75030); test: TRPM1 promoter luciferase signal decrease, dose response, MITF inhibitor project, cell-based, SK-MEL-5, cherry-picked, set 3 (AID 493073); type: functional
T6 sequence (O75030 whole entry): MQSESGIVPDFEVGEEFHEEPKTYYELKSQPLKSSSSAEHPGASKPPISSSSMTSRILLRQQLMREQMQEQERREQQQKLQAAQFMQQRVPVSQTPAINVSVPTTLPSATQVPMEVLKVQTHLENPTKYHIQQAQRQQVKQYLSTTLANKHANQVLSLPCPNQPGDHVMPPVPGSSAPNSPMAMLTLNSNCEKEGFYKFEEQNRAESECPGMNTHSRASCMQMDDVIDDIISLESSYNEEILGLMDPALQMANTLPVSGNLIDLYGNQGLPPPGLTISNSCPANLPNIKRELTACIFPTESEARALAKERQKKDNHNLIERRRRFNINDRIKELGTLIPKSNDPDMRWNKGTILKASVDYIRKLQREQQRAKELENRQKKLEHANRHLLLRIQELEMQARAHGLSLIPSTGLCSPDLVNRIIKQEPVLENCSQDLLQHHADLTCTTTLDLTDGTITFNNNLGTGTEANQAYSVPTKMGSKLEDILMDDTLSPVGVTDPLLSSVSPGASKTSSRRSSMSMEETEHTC

[15] = C. albicans growth with fluconazole, confirmation, fluorescence, retest (AID 2467); type: functional, cell-based
[16] = NIH-3T3 fibroblast cytotoxicity, dose response, cytotoxicity control, cell-based, fluorescence, Alamar Blue, secondary assay (AID 2327); type: functional;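 further: NIH-3T3 mouse fibroblasts cultured with fluconazole at 8 µg/mL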
[17] = molecular target: Induced myeloid leukemia cell differentiation protein Mcl-1 (Homo sapiens, UniProt Q07820); type: functional
Induced myeloid leukemia cell differentiation protein Mcl-1, sequence (Q07820 whole entry): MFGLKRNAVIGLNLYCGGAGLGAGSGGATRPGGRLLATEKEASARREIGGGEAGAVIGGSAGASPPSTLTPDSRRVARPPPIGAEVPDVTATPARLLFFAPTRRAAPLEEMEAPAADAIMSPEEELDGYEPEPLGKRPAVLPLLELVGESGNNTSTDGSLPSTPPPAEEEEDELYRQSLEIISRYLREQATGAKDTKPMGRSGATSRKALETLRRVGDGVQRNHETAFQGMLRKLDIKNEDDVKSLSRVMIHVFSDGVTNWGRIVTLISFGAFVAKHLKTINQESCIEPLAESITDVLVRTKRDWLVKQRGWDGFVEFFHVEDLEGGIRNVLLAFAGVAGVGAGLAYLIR

INS1 = test: beta cell apoptosis inhibitors, cytokine rescue, dose response, luminescence, retest (AID 449756); type: functional, cell-based; conditions: Rattus norvegicus;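 further: cell death triggered by IL-1 beta plus TNF-alpha plus IFN-gamma mixture; protective hits raise ATP signal compared with cytokine alone wells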

Cc1cc([N+](=O)[O-])ccc1-c1ccc(/C=N/NC(=O)c2ccc(Br)o2)o1
AC50 [1]: 2.35 µM (active)
EC50 [2]: 19.7 µM (active)
EC50 [3]: 5.51 µM (active)

COc1ccc2c(c1)OC[C@H]1[C@H]2N2C(=O)CN(Cc3ccc(C)cc3)C(=O)[C@@]2(C)[C@H]1c1ccccc1
AC50 [4]: 15.5 µM (active)
AC50 [5]: 7.77 µM (active)
AC50 [6]: 5.83 µM (active)
AC50 [7]: 26.9 µM (active)

Cc1noc(C)c1-c1nccc(-n2ccnc2)n1
AC50 (Cytochrome P450 2C9): inconclusive
AC50 (Cytochrome P450 2D6): 20 µM (inconclusive)

Cc1cc2cc(CNC(=O)Nc3ccccc3)ccc2n1C
IC50 (Protein skinhead-1): > 100 µM (inactive)
IC50 [8]: > 66 µM (inactive)
IC50 [9]: > 66 µM (inactive)

S=c1nc(-c2ccccc2)oc2c1CCCC2
AC50 (Cytochrome P450 2C9): inconclusive

O=C(OCC#CCSc1nnc(-c2cccc3ccccc23)o1)c1ccco1
AC50 (Cytochrome P450 2C9): inconclusive

Nc1ccc(N(c2ccccc2)c2ccc(N)cc2)cc1
EC50 [10]: 1.81 µM (active)
IC50 [11]: > 64 µM (inactive)
IC50 [12]: 8.57 µM (active)
EC50 [13]: > 60 µM (not active)
IC50 (Nonstructural protein 1): 9.26 µM (active)

CCN(CC)c1ccc(/N=C/c2c(C)[nH]c3ccccc23)cc1
IC50 [11]: > 64 µM (inactive)
IC50 [12]: 43.7 µM (active)
IC50 (Nonstructural protein 1): 29.3 µM (active)

CN=C(S)SCCOc1ccccc1
IC50 [8]: > 66 µM (inactive)
IC50 [9]: > 66 µM (inactive)

O=C(N/N=C/c1ccc(F)cc1)c1c(O)nc2ccccc2c1O
AC50 [14]: 9.64 µM (active)

O=C(N/N=C/c1sc(N2CCOCC2)nc1-c1ccccc1)c1cccc(S(=O)(=O)N2CCOCC2)c1
AC50 [4]: 4.42 µM (active)
EC50 [15]: > 38 µM (not active)
EC50 [16]: > 150 µM (inactive)
AC50 [5]: 4.02 µM (active)
AC50 [6]: 3.47 µM (active)
AC50 [7]: 6.84 µM (active)

COc1ccc(C(=S)N2CCC(C(N)=O)CC2)cc1Br
IC50 [8]: > 66 µM (inactive)
IC50 [9]: > 66 µM (inactive)

O=C(/C=C/c1ccc([N+](=O)[O-])s1)N1CCCC1
EC50 [10]: 1.03 µM (active)
AC50 [14]: 9.86 µM (active)
EC50 [13]: > 60 µM (not active)
EC50 [2]: > 300 µM (not active)
EC50 [3]: > 300 µM (not active)

O=C(O)c1ccccc1N/N=C/c1c(Sc2nnnn2-c2ccccc2)nc2ccccn2c1=O
IC50 [17]: 2.58 µM (active)
EC50 [2]: > 300 µM (not active)
EC50 [3]: 116 µM (active)

CCOC(=S)SCc1cn2cccc(C)c2n1
IC50 [8]: > 66 µM (inactive)
IC50 [9]: > 66 µM (inactive)

COc1ccc(CCNC(=O)c2nn(C)c3c2CS(=O)(=O)c2ccccc2-3)cc1OC
EC50 [2]: > 300 µM (not active)
EC50 [3]: > 300 µM (not active)

Cc1ccc(C(C)C)c(OCc2n[n+](CC(=O)c3ccc(Cl)cc3)c3n2CCCCC3)c1
EC50 [10]: 0.304 µM (active)
AC50 [1]: 3.31 µM (active)
AC50 (INS1): 3.41 µM (active)
AC50 [14]: 9.83 µM (active)
EC50 [13]: > 60 µM (not active)

CN1C(=O)C(=Cc2ccc(SC3CCCCC3)o2)C(=O)N(C)C1=O
EC50 [2]: > 300 µM (not active)
EC50 [3]: > 300 µM (not active)

CC(=O)N1CCN(c2ccc(NC(=S)NC(=O)COc3ccc(C(C)(C)C)cc3)cc2)CC1
IC50 [8]: > 66 µM (inactive)
IC50 [9]: > 66 µM (inactive)

CN(C)C(=O)CCC(=O)N1CCCC(C(=O)c2ccc3c4c(cccc24)CC3)C1 (stereo not given)
AC50 [4]: 0.53 µM (active)
AC50 [5]: 0.498 µM (active)
AC50 [6]: 2.71 µM (active)
AC50 [7]: 0.753 µM (active)

Cc1cccc(NC(=O)CCCN2C(=O)c3cccc4cccc(c34)C2=O)c1
AC50 (Cytochrome P450 2C9): inconclusive
AC50 (Cytochrome P450 2D6): 25.1 µM (inconclusive)

CCCCCCN1C=CC(=C2C(=O)c3ccccc3C2=O)C=C1
AC50 [14]: 3.86 µM (active)

COc1cccc(C2C(C#N)=C(N)OC3=C2C(=O)CCC3)c1OC(=O)c1ccco1 (stereo not given)
EC50 [2]: > 300 µM (not active)
EC50 [3]: > 300 µM (not active)

CC1CCCCN1C(=O)Cn1nnc(-c2cccnc2)n1 (stereo not given)
IC50 [8]: 17 µM (active)
IC50 [9]: > 66 µM (inactive)
